The results in this text go back to ChEMBL document CHEMBL5352428, “Covalent inhibitors of bacterial peptidoglycan biosynthesis enzyme MurA with chloroacetamide warhead” (Eur J Med Chem, 2022).

One series concerns Staphylococcus aureus. Description: Antibacterial activity against Staphylococcus aureus ATCC 29213 assessed as bacterial growth inhibition at <= 128 ug/ml incubated for 24 hrs by broth dilution method. It counts as functional, organism-based. To be noted: dose <= 128.0 µg/ml.
A short description of series [1]: Thiol reactivity of compound at pH 7.4 buffer at 100 uM and measured for 4 hrs every 5 mins in presence of DTNB and TCEP by microplate reader analysis. To be noted: pH 7.4, 4 h. The series is classed as physicochemical.
Series [2] addresses UDP-N-acetylglucosamine 1-carboxyvinyltransferase (Escherichia coli K-12) (UniProt P0A749). The series is described as follows: Inhibition of recombinant Escherichia coli MurA expressed in Escherichia coli NiCo21 assessed as residual activity using UNAG and PEP as substrate at 500 uM preincubated for 30 mins in presence of UNAG followed by PEP substrate addition and measured after 15 mins by malachite green based colorimetric assay. The conditions noted are these: time 45.0 min.

The test system of another series is Escherichia coli. The series is described as follows: Antibacterial activity against Escherichia coli ATCC 25922 assessed as bacterial growth inhibition at <=128 ug/ml incubated for 24 hrs by broth dilution method. The series is classed as functional, organism-based. To be noted: dose <= 128.0 µg/ml. For orientation: In broth dilution the organism is exposed to a series of concentrations in liquid medium.

The target in series [3] is UDP-N-acetylglucosamine 1-carboxyvinyltransferase (Escherichia coli K-12, UniProt P0A749). The series is described as follows: Inhibition of recombinant Escherichia coli MurA expressed in Escherichia coli NiCo21 using UNAG and PEP as substrate preincubated for 30 mins in presence of UNAG followed by PEP substrate addition and measured after 15 mins by malachite green based colorimetric assay.
Sequence of UDP-N-acetylglucosamine 1-carboxyvinyltransferase (P0A749 whole entry): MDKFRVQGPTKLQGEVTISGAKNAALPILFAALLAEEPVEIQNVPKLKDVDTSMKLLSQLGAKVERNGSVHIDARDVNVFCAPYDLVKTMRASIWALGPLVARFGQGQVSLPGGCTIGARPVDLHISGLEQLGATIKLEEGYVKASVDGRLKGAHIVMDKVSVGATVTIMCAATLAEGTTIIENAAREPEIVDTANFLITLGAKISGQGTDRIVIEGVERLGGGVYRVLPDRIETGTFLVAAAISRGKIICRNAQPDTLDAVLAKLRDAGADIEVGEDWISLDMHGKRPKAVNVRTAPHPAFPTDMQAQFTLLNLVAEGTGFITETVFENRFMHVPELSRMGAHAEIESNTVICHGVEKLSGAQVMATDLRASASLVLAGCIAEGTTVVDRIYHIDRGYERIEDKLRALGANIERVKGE

Series [4] has as its target UDP-N-acetylglucosamine 1-carboxyvinyltransferase (Escherichia coli K-12) (UniProt P0A749). The series is described as follows: Irreversible inhibition of recombinant Escherichia coli MurA expressed in Escherichia coli NiCo21 using UNAG and PEP as substrate assessed as second-order rate constant for enzyme inactivation, ratio of Kinact/Ki preincubated for 30 mins in presence of UNAG followed by 100 fold dilution and PEP substrate addition and measured after 15 mins by malachite green based colorimetric assay. To be noted: time 45.0 min.

Structures are written as SMILES. Calls of active or inactive are those of the source. The rule behind the calls is not given here.

Sequence of UDP-N-acetylglucosamine 1-carboxyvinyltransferase (Escherichia coli K-12) (P0A749 whole entry): as above

Consider `COc1cc(NC(=O)CCl)cc(OC)c1OC`, for which the result in the series with Staphylococcus aureus and in the series with Escherichia coli was inactive. Also, the Drug metabolism entry in series [1] is recorded as “Metabolite_Detected”. For the same compound, in series [2], the Activity turned out to be 92%.
In the case of `O=C(CCl)Nc1ccc(-c2nnn[nH]2)cc1`, the outcome with Staphylococcus aureus and with Escherichia coli was inactive. Moreover, the Drug metabolism entry in series [1] is given as “Metabolite_Detected”. In series [2], the Activity is 100%.
In the case of `O=C(CCl)Nc1ccncc1`, the outcome with Staphylococcus aureus and in the series on Escherichia coli was inactive. Moreover, in series [1], the Drug metabolism result is recorded as “Metabolite_Detected”. The Activity in series [2] amounted to 77%.
With `O=C(CCl)N1CCN(Cc2ccc3c(c2)OCO3)CC1`, the result with Staphylococcus aureus and in the series with Escherichia coli was inactive. Besides, the Drug metabolism result in series [1] is listed as “Metabolite_Detected”. Moreover, the Activity in series [2] was found to be 99%.
For the compound `O=C(O)C1CCCN(C(=O)CCl)C1` (stereo unspecified), the outcome with Staphylococcus aureus and in the series on Escherichia coli was inactive. For the same compound, the Drug metabolism result in series [1] is “Metabolite_Detected”. Moreover, the Activity in series [2] worked out at 75%.
With `CC(C)CNC(=O)CCl`, the outcome in the series with Staphylococcus aureus and with Escherichia coli was inactive. Besides, the Drug metabolism result in series [1] is “Metabolite_Notdetected”. Besides, the Activity in series [2] is 90%.
As to `CCOC(=O)C1CCCN(C(=O)CCl)C1` (stereo unspecified), the outcome with Staphylococcus aureus and with Escherichia coli was inactive. Moreover, the Drug metabolism entry in series [1] is recorded as “Metabolite_Detected”. Also, the Activity in series [2] worked out at 100%.
`O=C(CCl)N1CCc2ccccc2C1`: the result in the series with Staphylococcus aureus and with Escherichia coli was inactive. Also, in series [1], the Drug metabolism entry was “Metabolite_Detected”. For the same compound, the Activity in series [2] stood at 70%.
One may read the IC50 as the point on the concentration scale where inhibition reaches its midpoint. Turning to `O=C(CCl)N1CCC(COP(=O)(Oc2ccccc2)Oc2ccccc2)C1` (stereo unspecified), the outcome in the series on Staphylococcus aureus and with Escherichia coli was inactive. The IC50 in series [3] came to 311 µM. Also, the Drug metabolism entry in series [1] is reported as “Metabolite_Detected”.
On to `O=C(CCl)NC1CCCC(OP(=O)(Oc2ccccc2)Oc2ccccc2)C1` (stereo unspecified), for which the outcome in the series on Staphylococcus aureus and in the series with Escherichia coli was inactive. Besides, in series [1], the Drug metabolism result is on record as “Metabolite_Detected”. Also, in series [2], the Activity turned out to be 89%.
With `O=C(CCl)N1CCC(c2ccccc2)CC1`, the result in the series with Staphylococcus aureus and in the series on Escherichia coli was inactive. Further, the Drug metabolism entry in series [1] is “Metabolite_Detected”. In addition, the Activity in series [2] stood at 71%.
`CC(C)(C)OC(=O)NC1CCN(C(=O)CCl)CC1`: the outcome in the series with Staphylococcus aureus and with Escherichia coli was inactive. Besides, in series [1], the Drug metabolism entry is listed as “Metabolite_Detected”. Moreover, the Activity in series [2] came out at 61%.
For `O=C(CCl)NC1CCC2CCCCC2C1` (stereo unspecified), the result with Staphylococcus aureus and with Escherichia coli was inactive. Also, the Drug metabolism entry in series [1] is “Metabolite_Notdetected”. For the same compound, the Activity in series [2] came out at 79%.
For the compound `O=C(CCl)N1CCCCC1`, the result in the series on Staphylococcus aureus and in the series with Escherichia coli was inactive. Besides, in series [1], the Drug metabolism entry is “Metabolite_Detected”. For the same compound, the Activity in series [2] is 79%.
As for `COc1ccc(N2CCN(C(=O)CCl)CC2)cc1`, the result with Staphylococcus aureus and in the series with Escherichia coli was inactive. The Drug metabolism result in series [1] is reported as “Metabolite_Detected”. The Activity in series [2] came to 77%.
On to `O=C(CCl)N1CCN(c2ccccc2)CC1`, for which the result in the series on Staphylococcus aureus and in the series on Escherichia coli was inactive. Also, the Activity in series [2] was 90%.
As for `O=C(CCl)Nc1ccc2ccccc2c1`, the result with Staphylococcus aureus and in the series with Escherichia coli was inactive. Besides, the Drug metabolism entry in series [1] is reported as “Metabolite_Detected”. Besides, the Activity in series [2] came out at 83%.
As for `O=C(CCl)Nc1ccc(C(F)(F)F)cc1`, the result with Staphylococcus aureus and in the series on Escherichia coli was inactive. Also, in series [1], the Drug metabolism entry is reported as “Metabolite_Detected”. The Activity in series [2] was determined as 77%.
As for `O=C(CCl)Nc1ccc(-c2ncco2)cc1`, the result with Staphylococcus aureus and with Escherichia coli was inactive. Further, the Drug metabolism result in series [1] is on record as “Metabolite_Detected”. In series [2], the Activity stood at 71%.
With `Cc1ccc(S(=O)(=O)NC(=O)CC2CCN(C(=O)CCl)CC2)cc1`, the Ratio in series [4] is 2.79 10^-4/µM/min. In addition, the result in the series with Staphylococcus aureus and with Escherichia coli was inactive. For the same compound, in series [3], the IC50 came to 137 µM. For the same compound, the Drug metabolism entry in series [1] is on record as “Metabolite_Detected”.
`COC(=O)c1ccc(NC(=O)CCl)o1`: the outcome in the series on Staphylococcus aureus and in the series on Escherichia coli was inactive. In series [1], the Drug metabolism entry is “Metabolite_Detected”. Further, the Activity in series [2] was found to be 75%.
Regarding `O=C(CCl)N1CCN(CC(=O)N2CCCCC2)CC1`, the result with Staphylococcus aureus and in the series on Escherichia coli was inactive. Also, in series [1], the Drug metabolism entry is on record as “Metabolite_Detected”. For the same compound, the Activity in series [2] is 81%.
As for `CS(=O)(=O)NC1CCN(C(=O)CCl)CC1`, the Ratio in series [4] was 4.16 10^-4/µM/min. The result with Staphylococcus aureus and in the series on Escherichia coli was inactive. Moreover, in series [3], the IC50 is 240 µM. The Drug metabolism entry in series [1] is listed as “Metabolite_Detected”.
With `O=C(O)C1CCN(C(=O)CCl)CC1`, the outcome in the series with Staphylococcus aureus and with Escherichia coli was inactive. Besides, the Drug metabolism result in series [1] is reported as “Metabolite_Detected”. For the same compound, the Activity in series [2] is 95%.
As for `Cc1cc(NC(=O)CCl)on1`, the outcome with Staphylococcus aureus and in the series on Escherichia coli was inactive. For the same compound, in series [1], the Drug metabolism entry is listed as “Metabolite_Detected”. Further, in series [2], the Activity worked out at 71%.
Turning to `O=C(CCl)N1CCC(COP(=O)(O)O)C1` (stereo unspecified), the result in the series with Staphylococcus aureus and in the series on Escherichia coli was inactive. In series [1], the Drug metabolism entry is listed as “Metabolite_Detected”. The Activity in series [2] turned out to be 47%.
Turning to `CCOC(=O)C1CCN(C(=O)CCl)CC1`, the outcome in the series on Staphylococcus aureus and with Escherichia coli was inactive. In series [1], the Drug metabolism entry was “Metabolite_Detected”. In addition, the Activity in series [2] turned out to be 100%.
For `O=C(CCl)N1CCC(Sc2nnc(-c3ccccc3)o2)CC1`, the outcome with Staphylococcus aureus and in the series with Escherichia coli was inactive. In addition, the IC50 in series [3] was 162 µM. Further, the Drug metabolism result in series [1] was “Metabolite_Detected”.
In the case of `CC1CCCN(C(=O)CCl)C1` (stereo unspecified), the result with Staphylococcus aureus and in the series on Escherichia coli was inactive. Besides, the Drug metabolism entry in series [1] was “Metabolite_Detected”. For the same compound, in series [2], the Activity was found to be 80%.
On to `NC1CCN(C(=O)CCl)CC1`, for which the outcome with Staphylococcus aureus and with Escherichia coli was inactive. The Drug metabolism entry in series [1] is given as “Metabolite_Detected”. In addition, the Activity in series [2] is 82%.
Take `O=C(CCl)Nc1cccc2ccccc12`: the outcome in the series on Staphylococcus aureus and in the series on Escherichia coli was inactive. For the same compound, the Drug metabolism result in series [1] is reported as “Metabolite_Detected”. Further, the Activity in series [2] turned out to be 81%.
On to `N#Cc1ccc(NC(=O)CCl)cc1`, for which the outcome in the series with Staphylococcus aureus and with Escherichia coli was inactive. Further, the Drug metabolism result in series [1] is reported as “Metabolite_Detected”. Besides, the Activity in series [2] worked out at 89%.
As to `O=C(CCl)N1CCOCC1`, the result in the series with Staphylococcus aureus and in the series on Escherichia coli was inactive. The Drug metabolism entry in series [1] was “Metabolite_Detected”. Besides, in series [2], the Activity came to 87%.
For the compound `CCCCOc1ccc(NC(=O)CCl)cc1`, the outcome with Staphylococcus aureus and with Escherichia coli was inactive. Moreover, in series [1], the Drug metabolism result was “Metabolite_Detected”. Also, the Activity in series [2] came out at 100%.
Take `O=C(CCl)NC12CC3CC(CC(C3)C1)C2`: the outcome in the series on Staphylococcus aureus and with Escherichia coli was inactive. Moreover, the Drug metabolism result in series [1] is reported as “Metabolite_Notdetected”. In addition, the Activity in series [2] was 77%.
As for `O=C(CCl)NC1CCCCC1`, the result in the series with Staphylococcus aureus and in the series on Escherichia coli was inactive. Moreover, the Drug metabolism result in series [1] was “Metabolite_Notdetected”. Also, in series [2], the Activity was 74%.
Turning to `CCOC(=O)N1CCN(C(=O)CCl)CC1`, the outcome in the series on Staphylococcus aureus and in the series with Escherichia coli was inactive. For the same compound, the Drug metabolism result in series [1] was “Metabolite_Detected”. Besides, the Activity in series [2] turned out to be 95%.
Turning to `O=C(CCl)N1CCCC(OP(=O)(Oc2ccccc2)Oc2ccccc2)C1` (stereo unspecified), the result with Staphylococcus aureus and in the series on Escherichia coli was inactive. In addition, the IC50 in series [3] is 543 µM. In addition, the Drug metabolism entry in series [1] is listed as “Metabolite_Detected”.
Turning to `O=C(CCl)N1CCCc2ccccc21`, the outcome in the series with Staphylococcus aureus and with Escherichia coli was inactive. In addition, the Drug metabolism result in series [1] is on record as “Metabolite_Detected”. Moreover, the Activity in series [2] was 73%.
With `COc1ccc2nc(SC3CCN(C(=O)CCl)CC3)[nH]c2n1`, the outcome in the series on Staphylococcus aureus and with Escherichia coli was inactive. Further, in series [3], the half-maximal inhibitory concentration (IC50) worked out at 172 µM. The Drug metabolism entry in series [1] is “Metabolite_Detected”.
